# Patent US6447748B1, “Benzamide compounds for cancer imaging and therapy” (Research Corporation Technologies, Inc., priority 1993, dated 2002)
# pKd, pKi: −log10 of the molar value.
# Columns and labels:
# [1] = biological target: sigma sites labeled by 4-[125I]PEMP in guinea pig brain membranes; format: binding; conditions: read-out: Ki against 4-[125I]PEMP
# Experimental: (§1) Intact adherent cells were washed (2×1 mL) with 10 mM phosphate buffer (pH=7.2). […] Each data point represent an average of three values. The cells were incubated at 37° C. for 1 hr. and subsequently washed with phosphate buffer (10 mM; pH 7.2) (3×1 mL). The cells were then dissolved in 0.2 N NaOH (1.0 mL) and the activity counted on a Beckman (DP 5500) Gamma Counter. A similar procedure was repeated with 2-[^125I]BP with MCF-7, MDA-MB 231 and T47D breast cancer cells.
# (§2) The affinity of compounds for sites labeled by 4-[^125I]PEMP was determined by homologous and heterologous in vitro competitive binding assays in intact MCF-7 breast cancer cells and guinea pig brain membranes labeled by 4-[^125I]PEMP. The assays were prepared according to the procedure described in Example 14.
# [2] = test system: sites labeled by 4-[125I]PEMP in MCF-7 breast tumor cells
# Experimental: as §1, §2
# [3] = test system: human melanoma xenograft tumors (A2058); assay: Scintigraphic imaging of nude mice bearing human melanoma xenografts; format: in vivo, Balb/c nu/nu mice
# Experimental: (§3) A2058 cells, derived from a brain metastasis of human malignant melanoma (Todaro et al. 1980 Proc. Natl. Acad. Sci. USA 77: 5258) were obtained from the National Institutes of Health. A human lung adenocarcinoma cell line, NCI-838, was obtained from the National Cancer Institute. These cells were grown in DMEM2 medium (Dulbecco's modification of Eagle's medium, […]) supplemented with 10% fetal bovine serum and 0.03% L-glutamine.
# (§4) Balb/c nu/nu mice (17-22 g) bearing human melanoma or non-small cell lung carcinoma xenograft tumors were injected intravenously with 0.2 ml of saline solution containing [^131I]PAB or [^131I]DAB (150-200 μCi). The animals were anesthetized with ketamine containing rompun before the imaging studies. The images were obtained using a scintigraphic camera with a pin-hole collimator at 6 and 24 hr. post injection.
# [4] = test system: human adenocarcinoma xenograft (NCI-838); assay: Scintigraphic imaging of nude mouse bearing human lung adenocarcinoma xenograft; format: in vivo, Balb/c nu/nu mice; conditions: 24 and 30 hrs. post-injection
# Experimental: as §3
# as §4, with “The images were obtained using a scintigraphic camera with a pin-hole collimator at 6 and 24 hr. post injection.” left out
# [5] = test system: MCF-7 breast cancer cells; parameters: species or system human; conditions: read-out: Kd, saturable binding
# From the text: The cells were adherent and split weekly in a 1:20 ratio using trypsin/EDTA (GIBCO).
# [6] = test system: A2058 human malignant melanoma cells; assay: In vitro competitive binding of nonradioactive IPAB against [125I]PAB in A2058 cells; conditions: 37° C. for 5 hr., read-out: Ki, nonradioactive IPAB inhibiting binding of radioactive IPAB
# Experimental: These cells were grown in DMEM2 medium (Dulbecco's modification of Eagle's medium, EMEM) supplemented with 10% fetal bovine serum and 0.03% L-glutamine.
# A2058 cells, grown as described above, were harvested with calcium and magnesium free phosphate buffer (0.1 M) containing 0.02% EDTA. Cells were washed twice with ice-cold RPMI 1640 medium (Gibco) without glutamine and resuspended in the same medium. Carrier-free [^125I]PAB (0.1 ml) was added to eight aliquots of 0.1 ml test A2058 cells (1.5×10^6 cells in suspension). To observe competitive binding by non-radioactive IPAB, varying concentrations of non-radioactive IPAB were added in a volume of 0.1 ml. Cells were incubated at 37° C. for 5 hr. after addition of radioactive and nonradioactive IPAB.
# After incubation, cells were collected by centrifugation for 5 min and washed twice with RPMI 1640 medium. The radioactivity bound to cells was counted using a Packard Autogamma 5650 scintillation counter.
# Data were analyzed with an INPLOT® iterative, non-linear least square curve fitting program.
# Sigma-1 = Sigma-1 (Cavia porcellus, UniProt Q60492); assay: Sigma-1 binding assay, guinea pig brain membranes, [3H]-(+)-pentazocine (Example 8); conditions: read-out: Ki Sigma-1 Guinea Pig Brain; 3 nM [3H]-(+)-pentazocine, 60 min at 37° C.
# Experimental: (§5) A crude P2 membrane fraction was also prepared from the livers of rat Sprague-Dawley rats (150-220 g, Taconic Farms) liver. The animals were decapitated and their livers were minced and homogenized. The tissue homogenization was carried out at 4° C. in ml/g tissue weight of 10 mM Tris-HCl/0.32 M sucrose, pH=7.4 using 10 motor-driven strokes in a Potter-Elvehjem Teflon glass homogenizer. The crude homogenate was centrifuged for 10 min at 1000 g and the crude nuclear (P1) pellet was discarded. Supernatants were centrifuged at 31000 g for 15 min to yield a plasma membrane-mitochondrial pellet (P2). This pellet was resuspended in 3 ml/g in 10 mM tris-HCl, pH 7.4 and used for binding studies. Protein concentrations were determined by the method of Lowry.
# (§6) Filters were washed twice with ice-cold buffer. Prior to use, filters were soaked in 0.5% polyethyleneimine for about 30 min at 25° C.
# (§7) When the assay was terminated, the membranes were filtered and the filtrate washed twice as above. The radioactivity was counted in Ecoscint (National Diagnostics, Manville, N.J.) after an overnight extraction of counts.
# (§8) Ki values were calculated from the IC50 values using Cheng-Prusoff equation.
# [7] = biological target: T1, Sigma-2, rat C6 glioma cells (Rattus norvegicus, UniProt Q5U3Y7); assay: Sigma-2 binding assay, C6 glioma cell homogenates, [3H]DTG + dextrallorphan (Example 8); conditions: read-out: Ki Sigma-2 C6 Glioma Cells; 3 nM [3H]DTG, 1 micromolar dextrallorphan
# T1 sequence (Q5U3Y7 1-176): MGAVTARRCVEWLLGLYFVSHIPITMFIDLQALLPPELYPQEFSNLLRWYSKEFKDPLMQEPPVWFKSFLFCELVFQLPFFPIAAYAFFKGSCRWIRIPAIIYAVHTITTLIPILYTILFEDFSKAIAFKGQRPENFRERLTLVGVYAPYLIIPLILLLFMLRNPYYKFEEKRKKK
# Experimental: as §6, §7, §8
# Sigma-2 = biological target: T2, Sigma-2 (Rattus norvegicus, UniProt Q5U3Y7); assay: Sigma-2 binding assay, rat liver membranes, [3H]DTG + dextrallorphan (Example 8); conditions: read-out: Ki Sigma-2 Rat Liver; 3 nM [3H]DTG, 1 micromolar dextrallorphan
# T2 sequence (Q5U3Y7 1-176): T1 sequence (Q5U3Y7 1-176)
# Experimental: as §5, §6, §7, §8
# Sequence of Sigma-1 (Q60492 whole entry): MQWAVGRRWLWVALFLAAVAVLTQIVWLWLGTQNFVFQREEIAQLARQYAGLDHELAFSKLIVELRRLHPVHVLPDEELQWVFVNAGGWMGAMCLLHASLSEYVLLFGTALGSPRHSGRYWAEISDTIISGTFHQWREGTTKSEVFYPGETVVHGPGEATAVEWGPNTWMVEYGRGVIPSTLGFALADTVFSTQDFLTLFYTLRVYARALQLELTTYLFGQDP
compound,measurement,setting,value
CN(CCc1ccc(Cl)c(Cl)c1)CCN1CCCC1 [BD1008],pKi,[1],8.25
same,inhibition of specific binding of 4-[125I]PEMP,[2],"high affinity, concentration-dependent inhibition of specific binding"
^131I(2-Piperidinylaminoethyl)4-iodobenzamide [[^131I]PAB],"detection in the tumor, scintigraphic image",[3]; 6 and 24 hrs. post injection,detected only within the tumor
same,"uptake in the liver, scintigraphic image",[3]; 6 and 24 hrs. post-administration,Little or no
same,"visualization of implanted tumor, scintigraphic image",[4],easily visualized the implanted tumor
"O=C(NC1CCN(Cc2ccccc2)CC1)c1ccc(I)cc1 [4-[^125I]BP, ^125I-(N-Benzylpiperidin-4-yl)-4-iodobenzamide]",pKd,[5],7.59
"O=C(NCCN1CCCCC1)c1ccc(I)cc1 [IPAB, (2-Piperidinylaminoethyl)4-iodobenzamide]",pKi,[6],8.17
same,pKi,Sigma-1,9.05
same,pKi,[7],6.89
same,pKi,Sigma-2,7.62
